{
  "source": "patent US9084792B2",
  "about": "(Zhejiang Charioteer Pharmaceutical Co., Ltd., priority 2009, dated 2015)",
  "key": {"[1]": {"assay": "thermal decomposition point", "assay_type": "physicochemical", "method": "(1) It has the property required for large-scale preparation of drugs: for example, it has thermal decomposition point of over 250° C., and good fluidity and bulk density, which are in favor of drug preparation and industrial production on a large scale."}, "[2]": {"assay": "stability test of crystalline form on storage", "assay_type": "physicochemical", "settings": "room temperature, relative humidity of less than 50%", "description": "(2) It has good stability of crystalline form. […] It can be stored in the dark, cool and dry place for a long time."}},
  "data": [
    {"smiles": "Nc1nc2c(ncn2COCCO)c(=O)[nH]1.Nc1nc2c(ncn2COCCO)c(=O)[nH]1.Nc1nc2c(ncn2COCCO)c(=O)[nH]1.O.O", "note": "[acyclovir 2/3 hydrate]", "values": [
      {"measurement": "thermal decomposition point", "setting": "[1]", "value": "over 250 °C"},
      {"measurement": "storage time", "setting": "[2]", "value": "more than one year"},
      {"measurement": "content during the storage time", "setting": "[2]; more than one year", "value": "the content does not reduce"},
      {"measurement": "crystalline form during the storage time", "setting": "[2]; more than one year", "value": "the crystalline form remains the same"}
    ]}
  ]
}
